This passage reports IC50 results from patent US10519152B2, “Compounds and their use in treating cancer” (AstraZeneca AB, priority 2017, dated 2019).

The target of this assay is T1, recombinant human Estrogen Receptor alpha ligand binding domain, residues 307-554 (ER alpha-LBD (GST)) (Homo sapiens, UniProt P03372).
T1 construct: made in house
T1 sequence (P03372 307-554): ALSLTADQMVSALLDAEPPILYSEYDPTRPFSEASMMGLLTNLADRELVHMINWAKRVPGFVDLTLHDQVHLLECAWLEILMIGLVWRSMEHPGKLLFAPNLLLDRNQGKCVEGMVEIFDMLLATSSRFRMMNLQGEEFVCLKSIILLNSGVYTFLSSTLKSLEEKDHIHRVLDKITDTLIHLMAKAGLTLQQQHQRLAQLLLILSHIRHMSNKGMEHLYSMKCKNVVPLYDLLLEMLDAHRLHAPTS
Briefly: ERα binding assay (LanthaScreen TR-FRET competition). The settings on record: TR-FRET competition with Fluormone ES2 tracer, 4 hours at room temperature; single experiment or average of two or more.

On to `Cc1ncsc1-c1ccc(CNC(=O)[C@@H]2C[C@@H](O)CN2C(=O)[C@@H](NC(=O)CCCCCCCCCOc2cc(F)c([C@@H]3c4[nH]c5ccccc5c4C[C@@H](C)N3CC(C)(C)F)c(F)c2)C(C)(C)C)cc1` [Example 11, (2S,4R)-1-((S)-2-(10-(3,5-Difluoro-4-((1R,3R)-2-(2-fluoro-2-methylpropyl)-3-methyl-2,3,4,9-tetrahydro-1H-pyrido[3,4-b]indol-1-yl)phenoxy)decanamido)-3,3-dimethylbutanoyl)-4-hydroxy-N-(4-(4-methylthiazol-5-yl)benzyl)pyrrolidine-2-carboxamide], for which the IC50 came to 1.5 nM. The result for `Cc1ncsc1-c1ccc(CNC(=O)[C@@H]2C[C@@H](O)CN2C(=O)[C@@H](NC(=O)COCCCCCCCCOc2cc(F)c([C@@H]3c4[nH]c5ccccc5c4C[C@@H](C)N3CC(C)(C)F)c(F)c2)C(C)(C)C)cc1` [Example 12, (2S,4R)-1-((S)-2-(2-((8-(3,5-Difluoro-4-((1R,3R)-2-(2-fluoro-2-methylpropyl)-3-methyl-2,3,4,9-tetrahydro-1H-pyrido[3,4-b]indol-1-yl)phenoxy)octyl)oxy)acetamido)-3,3-dimethylbutanoyl)-4-hydroxy-N-(4-(4-methylthiazol-5-yl)benzyl)pyrrolidine-2-carboxamide] reads 1.6 nM. As to `Cc1ncsc1-c1ccc(CNC(=O)[C@@H]2C[C@@H](O)CN2C(=O)[C@@H](NC(=O)COCCCCCCCCOc2ccc([C@@H]3c4[nH]c5ccccc5c4C[C@@H](C)N3CC(F)F)nc2)C(C)(C)C)cc1` [Example 13, (2S,4R)-1-((S)-2-(2-((8-((6-((1S,3R)-2-(2,2-Difluoroethyl)-3-methyl-2,3,4,9-tetrahydro-1H-pyrido[3,4-b]indol-1-yl)pyridin-3-yl)oxy)octyl)oxy)acetamido)-3,3-dimethylbutanoyl)-4-hydroxy-N-(4-(4-methylthiazol-5-yl)benzyl)pyrrolidine-2-carboxamide], the half-maximal inhibitory concentration (IC50) stood at 5 nM. Next, `Cc1ncsc1-c1ccc(CNC(=O)[C@@H]2C[C@@H](O)CN2C(=O)[C@@H](NC(=O)COCCCCOc2cc(F)c([C@@H]3c4[nH]c5ccccc5c4C[C@@H](C)N3CC(C)(C)F)c(F)c2)C(C)(C)C)cc1` [Example 14, (2S,4R)-1-((S)-2-(2-(4-(3,5-Difluoro-4-((1R,3R)-2-(2-fluoro-2-methylpropyl)-3-methyl-2,3,4,9-tetrahydro-1H-pyrido[3,4-b]indol-1-yl)phenoxy)butoxy)acetamido)-3,3-dimethylbutanoyl)-4-hydroxy-N-(4-(4-methylthiazol-5-yl)benzyl)pyrrolidine-2-carboxamide]: 0.9 nM; `Cc1ncsc1-c1ccc(CNC(=O)[C@@H]2C[C@@H](O)CN2C(=O)[C@@H](NC(=O)CCCCCCCCOc2cc(F)c([C@@H]3c4[nH]c5ccccc5c4C[C@@H](C)N3CC(C)(C)F)c(F)c2)C(C)(C)C)cc1` [Example 15, (2S,4R)-1-((S)-2-(9-(3,5-Difluoro-4-((1R,3R)-2-(2-fluoro-2-methylpropyl)-3-methyl-2,3,4,9-tetrahydro-1H-pyrido[3,4-b]indol-1-yl)phenoxy)nonanamido)-3,3-dimethylbutanoyl)-4-hydroxy-N-(4-(4-methylthiazol-5-yl)benzyl)pyrrolidine-2-carboxamide]: 1.5 nM; `Cc1ncsc1-c1ccc(CNC(=O)[C@@H]2C[C@@H](O)CN2C(=O)[C@@H](NC(=O)COCCCCOCCOc2cc(F)c([C@@H]3c4[nH]c5ccccc5c4C[C@@H](C)N3CC(C)(C)F)c(F)c2)C(C)(C)C)cc1` [Example 16, (2S,4R)-1-((S)-2-(2-(4-(2-(3,5-Difluoro-4-((1R,3R)-2-(2-fluoro-2-methylpropyl)-3-methyl-2,3,4,9-tetrahydro-1H-pyrido[3,4-b]indol-1-yl)phenoxy)ethoxy)butoxy)acetamido)-3,3-dimethylbutanoyl)-4-hydroxy-N-(4-(4-methylthiazol-5-yl)benzyl)pyrrolidine-2-carboxamide]: 0.8 nM.

In the case of `Cc1ncsc1-c1ccc(CNC(=O)[C@@H]2C[C@@H](O)CN2C(=O)[C@@H](NC(=O)COCCCCCOc2ccc([C@@H]3c4[nH]c5ccccc5c4C[C@@H](C)N3CC(F)F)nc2)C(C)(C)C)cc1` [Example 17, (2S,4R)-1-((S)-2-(2-((5-((6-((1S,3R)-2-(2,2-Difluoroethyl)-3-methyl-2,3,4,9-tetrahydro-1H-pyrido[3,4-b]indol-1-yl)pyridin-3-yl)oxy)pentyl)oxy)acetamido)-3,3-dimethylbutanoyl)-4-hydroxy-N-(4-(4-methylthiazol-5-yl)benzyl)pyrrolidine-2-carboxamide], the IC50 stood at 5.5 nM. Next, `Cc1ncsc1-c1ccc(CNC(=O)[C@@H]2C[C@@H](O)CN2C(=O)[C@@H](NC(=O)COCCCCCOc2cc(F)c([C@@H]3c4[nH]c5ccccc5c4C[C@@H](C)N3CC(C)(C)F)c(F)c2)C(C)(C)C)cc1` [Example 18, (2S,4R)-1-((S)-2-(2-((5-(3,5-Difluoro-4-((1R,3R)-2-(2-fluoro-2-methylpropyl)-3-methyl-2,3,4,9-tetrahydro-1H-pyrido[3,4-b]indol-1-yl)phenoxy)pentyl)oxy)acetamido)-3,3-dimethylbutanoyl)-4-hydroxy-N-(4-(4-methylthiazol-5-yl)benzyl)pyrrolidine-2-carboxamide]: 0.6 nM; `Cc1ncsc1-c1ccc(CNC(=O)[C@@H]2C[C@@H](O)CN2C(=O)[C@@H](NC(=O)COc2cccc(COc3cc(F)c([C@@H]4c5[nH]c6ccccc6c5C[C@@H](C)N4CC(C)(C)F)c(F)c3)c2)C(C)(C)C)cc1` [Example 20, (2S,4R)-1-((S)-2-(2-(3-((3,5-difluoro-4-((1R,3R)-2-(2-fluoro-2-methylpropyl)-3-methyl-2,3,4,9-tetrahydro-1H-pyrido[3,4-b]indol-1-yl)phenoxy)methyl)phenoxy)acetamido)-3,3-dimethylbutanoyl)-4-hydroxy-N-(4-(4-methylthiazol-5-yl)benzyl)pyrrolidine-2-carboxamide]: 1 nM. Next, `Cc1ncsc1-c1ccc(CNC(=O)[C@@H]2C[C@@H](O)CN2C(=O)[C@@H](NC(=O)COCC/C=C/CCOc2cc(F)c([C@@H]3c4[nH]c5ccccc5c4C[C@@H](C)N3CC(C)(C)F)c(F)c2)C(C)(C)C)cc1` [Example 22, (2S,4R)-1-((S)-2-(2-(((E)-6-(3,5-Difluoro-4-((1R,3R)-2-(2-fluoro-2-methylpropyl)-3-methyl-2,3,4,9-tetrahydro-1H-pyrido[3,4-b]indol-1-yl)phenoxy)hex-3-en-1-yl)oxy)acetamido)-3,3-dimethylbutanoyl)-4-hydroxy-N-(4-(4-methylthiazol-5-yl)benzyl)pyrrolidine-2-carboxamide]: 0.7 nM; `Cc1ncsc1-c1ccc(CNC(=O)[C@@H]2C[C@@H](O)CN2C(=O)[C@@H](NC(=O)COCCC(C)(C)CCOc2cc(F)c([C@@H]3c4[nH]c5ccccc5c4C[C@@H](C)N3CC(C)(C)F)c(F)c2)C(C)(C)C)cc1` [Example 23, (2S,4R)-1-((S)-2-(2-((5-(3,5-Difluoro-4-((1R,3R)-2-(2-fluoro-2-methylpropyl)-3-methyl-2,3,4,9-tetrahydro-1H-pyrido[3,4-b]indol-1-yl)phenoxy)-3,3-dimethylpentyl)oxy)acetamido)-3,3-dimethylbutanoyl)-4-hydroxy-N-(4-(4-methylthiazol-5-yl)benzyl)pyrrolidine-2-carboxamide]: 1.1 nM.
